Assays:
[1] = Chemical stability in simulated intestinal fluid assessed as parent compound remaining incubated for 12 hrs by LC-MS/MS analysis; assay type: ADME, physicochemical; settings: simulated gi fluid
[2] = Chemical stability in simulated gastric fluid assessed as parent compound remaining incubated for 12 hrs by LC-MS/MS analysis; assay type: ADME, physicochemical; settings: simulated gi fluid
[3] = Chemical stability of compound in pH 1.2 HCl buffer at 100 uM incubated for 24 hrs by HPLC analysis; assay type: physicochemical; settings: pH 1.2, 24 h
[4] = Chemical stability of compound in pH 4.5 PBS buffer at 100 uM incubated for 24 hrs by HPLC analysis; assay type: physicochemical; settings: pH 4.5, 24 h
[5] = Chemical stability of compound in pH 7.4 PBS buffer at 100 uM incubated for 24 hrs by HPLC analysis; assay type: physicochemical; settings: pH 7.4, 24 h
[6] = Prodrug conversion in Sprague-Dawley rat colon content suspension assessed as tofacitinib release measured upto 8 hrs by HPLC analysis; assay type: ADME, tissue-based
[7] = Prodrug conversion in Sprague-Dawley rat assessed as AUC (0 to infinity) of tofacitinib at 15 mg/kg, po measured up to 12 hrs by LC-MS/MS analysis; assay type: ADME, organism-based; set-up: route oral, dose 15 mg/kg, time <=12; settings: in vivo
[8] = Prodrug conversion in Sprague-Dawley rat assessed as Cmax of tofacitinib at 15 mg/kg, po measured up to 12 hrs by LC-MS/MS analysis; assay type: ADME, organism-based; set-up: route oral, dose 15 mg/kg, time <=12; settings: in vivo
[9] = Prodrug conversion in Sprague-Dawley rat assessed as Tmax of tofacitinib at 15 mg/kg, po measured up to 12 hrs by LC-MS/MS analysis; assay type: ADME, organism-based; settings: in vivo
[10] = Prodrug conversion in Sprague-Dawley rat assessed as elimination half life of tofacitinib at 15 mg/kg, po measured up to 12 hrs by LC-MS/MS analysis; assay type: ADME, organism-based; settings: in vivo
[11] = Prodrug conversion in BALB/c mouse plasma assessed as tofacitinib AUC(0 to 12 hrs) at 15 mg/kg, po measured upto 12 hrs by LC-MS/MS analysis; assay type: ADME, organism-based; set-up: route oral, dose 15 mg/kg, time <=12; settings: in vivo
[12] = Prodrug conversion in BALB/c mouse duodenum assessed as tofacitinib AUC(0 to 12 hrs) at 15 mg/kg, po measured upto 12 hrs by LC-MS/MS analysis; assay type: ADME, organism-based; set-up: route oral, dose 15 mg/kg, time <=12; settings: in vivo
[13] = Prodrug conversion in BALB/c mouse jejunum assessed as tofacitinib AUC(0 to 12 hrs) at 15 mg/kg, po measured upto 12 hrs by LC-MS/MS analysis; assay type: ADME, organism-based; set-up: route oral, dose 15 mg/kg, time <=12; settings: in vivo
[14] = Prodrug conversion in BALB/c mouse ileum assessed as tofacitinib AUC(0 to 12 hrs) at 15 mg/kg, po measured upto 12 hrs by LC-MS/MS analysis; assay type: ADME, organism-based; set-up: route oral, dose 15 mg/kg, time <=12; settings: in vivo
[15] = Prodrug conversion in BALB/c mouse colon assessed as tofacitinib AUC(0 to 12 hrs) at 15 mg/kg, po measured upto 12 hrs by LC-MS/MS analysis; assay type: ADME, organism-based; set-up: route oral, dose 15 mg/kg, time <=12; settings: in vivo

Row | Stability [1] | Stability [2] | Stability [3] | Stability [4] | Stability [5] | Drug metabolism [6] [mmol/L/h] | AUC [7] [µM·h] | Cmax [8] [µM] | Tmax [9] [h] | beta t1/2 [10] [h] | AUC [11] [µM·h] | AUC [12] [µM·h] | AUC [13] [µM·h] | AUC [14] [µM·h] | AUC [15] [µM·h] | SMILES
1 | Stable | Stable | Stable | Stable | Stable | 2.93 | – | – | – | – | – | – | – | – | – | C[C@@H]1CCN(C(=O)CC#N)C[C@@H]1N(C)c1ncnc2c1ccn2C(=O)N(C)CCN(C)C(=O)OCc1ccc(/N=N/c2ccc(O)c(C(=O)O)c2)c(Cl)c1
2 | Stable | Stable | Stable | Stable | Stable | 2.46 | – | – | – | – | – | – | – | – | – | COc1cc(COC(=O)N(C)CCN(C)C(=O)n2ccc3c(N(C)[C@H]4CN(C(=O)CC#N)CC[C@H]4C)ncnc32)ccc1/N=N/c1ccc(O)c(C(=O)O)c1
3 | – | – | – | – | – | – | 70.66 | 54.9 | 0.42 | 3.94 | 7.1 | 67 | 43 | 50.3 | 167 | C[C@@H]1CCN(C(=O)CC#N)C[C@@H]1N(C)c1ncnc2[nH]ccc12.O=C(O)CC(O)(CC(=O)O)C(=O)O [TOFACITINIB CITRATE]
4 | Stable | Stable | Stable | Stable | Stable | 2.87 | – | – | – | – | – | – | – | – | – | C[C@@H]1CCN(C(=O)CC#N)C[C@@H]1N(C)c1ncnc2c1ccn2CNC(=O)OCc1ccc(/N=N/c2ccc(O)c(C(=O)O)c2)cc1

From ChEMBL document CHEMBL5046297, “Discovery of a Colon-Targeted Azo Prodrug of Tofacitinib through the Establishment of Colon-Specific Delivery Systems Constructed by 5-ASA-PABA-MAC and 5-ASA-PABA-Diamine for the Treatment of Ulcerative Colitis” (J Med Chem, 2022)
